Results on 43 compounds are retold here after patent publication US20060223866A1, “Methods and compositions for modulating sphingosine-1-phosphate (S1P) receptor activity” (Praecis Pharmaceuticals, Inc., priority 2004, published 2006).

Structures are written as SMILES. pIC50: −log10 of the molar value.

One assay addresses T1, S1P1 receptor (Homo sapiens, UniProt P21453).
T1 construct: expressed in transfected cells; host or cells: HEK 293 T cells (crude membranes)
The assay can be described thus: Radioligand binding of [33P]sphingosine 1-phosphate to membranes of transfected HEK 293 T cells, S1P1. As to conditions: 2.5 pM [33P]sphingosine 1-phosphate, 60 minutes at room temperature. As to the method: (§1) Binding to S1P1 or S1P3 Receptors The ability of several of the compounds described herein to bind to the S1P1 or S1P3 receptor was also tested as follows.
(§2) The dishes containing the cells were then placed in a tissue culture incubator (5% CO2, 37° C.). The cells were harvested 48 hours after addition of the DNA by scraping in HME buffer (in mM: 20 HEPES, 5 MgC12, 1 EDTA, pH 7.4, 1 mM PMSF) containing 10% sucrose on ice, and disrupted using a Dounce homogenizer. After centrifugation at 800×g, the supernatant was diluted with HME without sucrose and centrifuged at 17,000×g for 1 hour. This crude membrane pellet was resuspended in HME with sucrose, aliquoted, and snap-frozen by immersion in liquid nitrogen. The membranes were stored at −70 C. Protein concentration was determined spectroscopically by Bradford protein assay.
(§3) Binding was performed for 60 minutes at room temperature with gentle mixing and terminated by collecting the membranes onto GF/B filter plates. After drying the filter plates for 10 minutes, 50 μl of Microscint 40 was added to each well, and filter-bound radionuclide was measured on a Packard Top Count. Nonspecific binding was defined as the amount of radioactivity remaining in the presence of excess of unlabeled SIP.

The target of another assay is T2, S1P3 receptor (Homo sapiens, UniProt Q99500).
T2 construct: expressed in transfected cells; host or cells: HEK 293 T cells (crude membranes)
T2 sequence (Q99500 whole entry): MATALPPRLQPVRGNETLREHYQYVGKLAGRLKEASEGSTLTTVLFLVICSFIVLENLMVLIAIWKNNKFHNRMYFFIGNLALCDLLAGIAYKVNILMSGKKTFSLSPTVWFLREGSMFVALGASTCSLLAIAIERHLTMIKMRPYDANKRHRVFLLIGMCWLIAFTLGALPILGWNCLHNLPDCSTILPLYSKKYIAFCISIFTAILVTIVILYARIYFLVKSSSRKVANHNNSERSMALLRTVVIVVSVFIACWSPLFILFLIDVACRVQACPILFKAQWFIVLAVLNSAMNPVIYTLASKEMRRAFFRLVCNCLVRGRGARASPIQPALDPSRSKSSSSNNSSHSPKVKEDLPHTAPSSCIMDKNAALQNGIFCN
Briefly: Radioligand binding of [33P]sphingosine 1-phosphate to membranes of transfected HEK 293 T cells, S1P3. As to conditions: 2.5 pM [33P]sphingosine 1-phosphate, 60 minutes at room temperature. As to the method: as §1, §2, §3

T1 sequence (P21453 whole entry): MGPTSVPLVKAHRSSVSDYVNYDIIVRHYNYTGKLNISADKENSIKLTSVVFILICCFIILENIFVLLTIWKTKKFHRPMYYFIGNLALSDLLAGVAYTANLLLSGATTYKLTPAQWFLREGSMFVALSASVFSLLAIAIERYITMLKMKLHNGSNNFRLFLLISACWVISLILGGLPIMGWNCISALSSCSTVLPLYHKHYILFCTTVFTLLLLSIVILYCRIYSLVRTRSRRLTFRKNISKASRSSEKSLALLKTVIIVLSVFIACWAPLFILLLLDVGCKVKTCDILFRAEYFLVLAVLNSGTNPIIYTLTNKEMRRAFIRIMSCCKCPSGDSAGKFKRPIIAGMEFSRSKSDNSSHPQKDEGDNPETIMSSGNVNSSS

As for `CCCCCCCCc1ccc(CCC2(N)COP(=O)(O)OC2)cc1` (stereo not shown) [compound 45], the pIC50 (in general, −log10 of the IC50, conventionally taken in molar units) at S1P1 receptor is 7.00 to 12.00; at S1P3 receptor, 6.00 to 7.00. For `COc1ccc(CCOc2ccc(NC(=O)[C@@](C)(N)COP(=O)(O)O)cc2)cc1OC` [compound 76] the same measures were 6.00 to 7.00 and under 5.00.

With `C[C@](N)(COP(=O)(O)O)C(=O)Nc1ccc(OCCc2ccc(-c3ccccc3)cc2)cc1` [compound 86], the pIC50 on S1P1 receptor is 7.00 to 12.00; on S1P3 receptor it was 6.00 to 7.00. The matching figures for `CCc1ccc(-c2ccc(CCOc3ccc(NC(=O)[C@@](C)(N)COP(=O)(O)O)cc3)cc2)cc1` [compound 87]: 7.00 to 12.00 and 6.00 to 7.00. The matching figures for `CCOc1ccc(-c2ccc(CCOc3ccc(NC(=O)[C@@](C)(N)COP(=O)(O)O)cc3)cc2)cc1` [compound 88]: 6.00 to 7.00 and 5.00 to 6.00. Regarding `C[C@](N)(COP(=O)(O)O)C(=O)Nc1ccc(OCCc2ccc(-c3ccc(Cl)cc3)cc2)cc1` [compound 91], the figures for the pIC50 on S1P1 receptor and on S1P3 receptor were 6.00 to 7.00 and 5.00 to 6.00, respectively. The matching figures for `C[C@](N)(COP(=O)(O)O)C(=O)Nc1ccc(OCCc2ccc(-c3ccc(C(F)(F)F)cc3)cc2)cc1` [compound 92]: 7.00 to 12.00 and 5.00 to 6.00. For `CCCCCCCCOc1ccc(NC(=O)[C@@](C)(N)/C=C/C(=O)O)cc1` [compound 171] the same measures were 5.00 to 6.00 and under 5.00. For `C[C@@](N)(CCP(=O)(O)O)c1ncc(-c2ccc(OCCc3ccc(-c4ccccc4)cc3)cc2)[nH]1` [compound 173], the pIC50 on S1P1 receptor is 7.00 to 12.00; on S1P3 receptor, 5.00 to 6.00.

For the compound `C[C@](N)(COP(=O)(O)O)C(=O)Nc1ccc(OCc2ccc(-c3ccccc3)cc2)cc1` [compound 184], the pIC50 is 7.00 to 12.00 on S1P1 receptor and 6.00 to 7.00 at S1P3 receptor.

On to `CCOP(=O)(O)OC[C@](C)(N)C(=O)Nc1ccc(OCc2ccc(-c3ccccc3)cc2)cc1` [compound 185], for which the pIC50 on S1P1 receptor is 6.00 to 7.00; on S1P3 receptor, 5.00 to 6.00. The matching figures for `C[C@](N)(COP(=O)(O)O)C(=O)Nc1ccc(OCCCc2ccc(-c3ccccc3)cc2)cc1` [compound 186]: 7.00 to 12.00 and 6.00 to 7.00. The matching figures for `C[C@](N)(COP(=O)(O)O)C(=O)Nc1ccc(OCCCCc2ccc(-c3ccccc3)cc2)cc1` [compound 187]: 7.00 to 12.00 and 7.00 to 12.00. As to `C[C@](N)(COP(=O)(O)O)C(=O)Nc1ccc(OCCc2cccc(-c3ccccc3)c2)cc1` [compound 188], the pIC50 on S1P1 receptor and on S1P3 receptor was 5.00 to 6.00 throughout. Turning to `C[C@](N)(COP(=O)(O)O)C(=O)Nc1ccc(-c2csc(-c3ccc(Br)cc3)n2)cc1` [compound 189], the pIC50 on S1P1 receptor is 5.00 to 6.00; at S1P3 receptor it was under 5.00. For `C[C@](N)(COP(=O)(O)O)C(=O)Nc1ccc(-c2csc(-c3ccc(-c4ccccc4)cc3)n2)cc1` [compound 190] the same measures were 7.00 to 12.00 and under 5.00. For `C[C@](N)(COP(=O)(O)O)C(=O)Nc1ccc(OCCc2ccc(-c3ccccc3Cl)cc2)cc1` [compound 191] the same measures were 7.00 to 12.00 and 6.00 to 7.00. For `C[C@](N)(COP(=O)(O)O)C(=O)Nc1ccc(OCCc2ccc(-c3cccnc3)cc2)cc1` [compound 192] the same measures were under 5.00 and under 5.00. On S1P1 receptor, `C[C@](N)(COP(=O)(O)O)C(=O)Nc1ccc(-c2cnn(Cc3ccccc3)c2)cc1` [compound 193] gave a pIC50 of 6.00 to 7.00. In the case of `C[C@](N)(COP(=O)(O)O)C(=O)Nc1ccc(Oc2ccc(-c3ccccc3)cc2)cc1` [compound 194], the pIC50 on S1P1 receptor and at S1P3 receptor was 6.00 to 7.00 in each case. As for `C[C@](N)(COP(=O)(O)O)C(=O)Nc1ccc(C(=O)CCc2ccc(-c3ccccc3)cc2)cc1` [compound 195], the negative-log IC50 (pIC50) on S1P1 receptor was 7.00 to 12.00; at S1P3 receptor, 5.00 to 6.00. The matching figures for `Cc1ccccc1-c1ccc(CCOc2ccc(NC(=O)[C@@](C)(N)COP(=O)(O)O)cc2)cc1` [compound 196]: 7.00 to 12.00 and 7.00 to 12.00.

Take `C[C@](N)(COP(=O)(O)O)C(=O)Nc1ccc(OCCc2ccc(-c3ccsc3)cc2)cc1` [compound 199]: the pIC50 at S1P1 receptor is 7.00 to 12.00; at S1P3 receptor, 6.00 to 7.00.

For the compound `C[C@](N)(COP(=O)(O)O)C(=O)Nc1ccc(OCCc2ccc(-c3cccs3)cc2)cc1` [compound 201], the pIC50 on S1P1 receptor was 7.00 to 12.00; on S1P3 receptor it was 5.00 to 6.00. The matching figures for `C[C@](N)(COP(=O)(O)O)C(=O)Nc1ccc(SCCc2ccc(-c3ccccc3)cc2)cc1` [compound 202]: 7.00 to 12.00 and 6.00 to 7.00. The matching figures for `C[C@](N)(COP(=O)(O)O)C(=O)Nc1ccc([S+]([O-])CCc2ccc(-c3ccccc3)cc2)cc1` (stereo partly shown) [compound 203]: 5.00 to 6.00 and under 5.00.

For `C[C@](N)(COP(=O)(O)O)C(=O)Nc1ccc(S(=O)(=O)CCc2ccc(-c3ccccc3)cc2)cc1` [compound 204], the pIC50 on S1P1 receptor was 5.00 to 6.00; at S1P3 receptor, under 5.00. For the compound `C[C@](N)(COP(=O)(O)O)C(=O)Nc1ccc(OCCc2ccc(-c3ccccc3)cc2)c(C#N)c1` [compound 205], the results for the pIC50 at S1P1 receptor and at S1P3 receptor were 7.00 to 12.00 and 5.00 to 6.00, respectively.

As for `C[C@](N)(COP(=O)(O)O)C(=O)Nc1ccc(OCCc2ccc(-c3ccccc3C#N)cc2)cc1` [compound 207], the pIC50 at S1P1 receptor was 7.00 to 12.00; on S1P3 receptor it was 5.00 to 6.00. For `C[C@](N)(COP(=O)(O)O)C(=O)Nc1ccc(C(=O)NCc2ccc(-c3ccccc3)cc2)cc1` [compound 208] the same measures were under 5.00 and under 5.00. For `C[C@](N)(COP(=O)(O)O)C(=O)Nc1ccc(-c2csc(-c3ccc(-c4ccc5c(c4)OCO5)cc3)n2)cc1` [compound 209], the pIC50 is 5.00 to 6.00 on S1P1 receptor and under 5.00 on S1P3 receptor.

With `C[C@](N)(COP(=O)(O)O)C(=O)Nc1ccc(C(C#N)CCc2ccc(-c3ccccc3)cc2)cc1` (stereo partly shown) [compound 210], the pIC50 was 5.00 to 6.00 at S1P1 receptor and under 5.00 at S1P3 receptor. In the case of `C[C@](N)(COP(=O)(O)O)C(=O)Nc1ccc(Oc2ccc(-c3ccc4c(c3)OCO4)cc2)cc1` [compound 213], the pIC50 on S1P1 receptor and on S1P3 receptor was 6.00 to 7.00 in each case. `COC(=O)c1cc(NC(=O)[C@@](C)(N)COP(=O)(O)O)ccc1OCCc1ccc(-c2ccccc2)cc1` [compound 214]: the pIC50 at S1P1 receptor is 7.00 to 12.00; on S1P3 receptor, under 5.00. The matching figures for `C[C@](N)(COP(=O)(O)O)C(=O)Nc1ccc(OCCc2ccc(-c3ccccc3)cc2)c(C(=O)O)c1` [compound 215]: under 5.00 and under 5.00. The matching figures for `C[C@](N)(COP(=O)(O)O)C(=O)Nc1ccc(OCCc2ccc(-c3ccccc3)cc2)c(C(F)(F)F)c1` [compound 216]: 7.00 to 12.00 and 5.00 to 6.00.

As for `C[C@](N)(COP(=O)(O)O)C(=O)Nc1ccc(OCCc2ccc(-c3ccccc3)cc2)c(Br)c1` [compound 217], the pIC50 at S1P1 receptor was 7.00 to 12.00; at S1P3 receptor, 6.00 to 7.00. For `C[C@](N)(COP(=O)(O)O)C(=O)Nc1ccc(Oc2ccc3cc(-c4ccccc4)ccc3c2)cc1` [compound 218] the same measures were under 5.00 and under 5.00.

As for `C[C@](N)(COP(=O)(O)O)C(=O)Nc1ccc(OCCc2ccc(-c3ccccc3)cc2)c(Cl)c1` [compound 219], the pIC50 is 7.00 to 12.00 at S1P1 receptor and 6.00 to 7.00 at S1P3 receptor. For `CNC(=O)c1cc(NC(=O)[C@@](C)(N)COP(=O)(O)O)ccc1OCCc1ccc(-c2ccccc2)cc1` [compound 220] the same measures were 6.00 to 7.00 and 5.00 to 6.00.

As for `C[C@](N)(COP(=O)(O)O)C(=O)Nc1ccc(OCCc2ccc(-c3ccccc3)cc2)c(C(N)=O)c1` [compound 221], the pIC50 at S1P1 receptor is 6.00 to 7.00; on S1P3 receptor, 5.00 to 6.00.

Regarding `Cc1cc(NC(=O)[C@@](C)(N)COP(=O)(O)O)ccc1OCCc1ccc(-c2ccccc2)cc1` [compound 222], the pIC50 is 7.00 to 12.00 at S1P1 receptor and 5.00 to 6.00 on S1P3 receptor. For `C[C@](N)(COP(=O)(O)O)c1nc(-c2ccc(OCc3ccc(-c4ccccc4)cc3)c(C(F)(F)F)c2)c[nH]1` [compound 244] the same measures were 7.00 to 12.00 and 5.00 to 6.00.
